According to PMC10364322, “Evaluation of chronic drug-induced electrophysiological and cytotoxic effects using human-induced pluripotent stem cell-derived cardiomyocytes (hiPSC-CMs)” (Frontiers in Pharmacology, 2023):
Where two headings read alike, the source gives them in different places.

Experiments:
[1] = tested on: cynomolgus monkeys; design: method as in Gill et al., 2017; conditions: ref Gill et al., 2017; cited from earlier work
[2] = tested on: hiPSC-CMs (iCell-Cardiomyocytes^2); assay: ApoLive-Glo Multiplex Assay: viability (live cells); assay type: cell-based, human
Method: (§1) iCell-Cardiomyocytes^2 (Fujifilm Cellular Dynamics Inc., Madison, WI, United States) were seeded into 96 well-plates (Greiner Bio One, ref. 655946) according to the manufacturer instructions, at a density of 50 k cells/well. […] To assess effects on viability and cytotoxicity, two assay combination kits were used: 1) RealTime-Glo™ Annexin V Apoptosis and Necrosis Assay [Promega, JA1011 ([Kupcho et al., 2019])] and 2) ApoLive-Glo Multiplex Assay [Promega, G6410 ([Flörkemeier et al., 2022])]. The assays were performed according to manufacturer instructions. The experiments were repeated at 24, 48, and 72 h in order to assess any time-dependent change in live cells or activation of cell-death pathways.
(§2) The nonparametric Wilcoxon-Mann Whitney Test was used to compare the percent change from the baseline (Δ%) value between the group treated with the compound at a given concentration and the group treated with the DMSO at each matching time points. A two-sided test at 5% significance level was considered. […] To assess the physiological relevance of changes, a tolerance interval of DMSO experiments was calculated at each time point, for each parameter. Specifically, the Δ% values of all (pooled) DMSO wells (N = 81) were used to obtain the non-parametric 80%–95% (p = 0.80 & 1-α = 0.95) tolerance interval (TI). TIs indicate an interval where, with a certain confidence level (1- α = 0.95), a specified proportion (p = 0.80) of percent change for DMSO data falls. The lower and upper limits based on the TI values were used as cut-offs for the interpretation of the changes. For the cytotoxicity assays, measurements of fluorescence (after background fluorescence subtraction) from wells treated with the compounds were normalized by the average value of vehicle experiments (DMSO 0.1%) to obtain a DMSO-corrected, delta/delta percent change. Experiments from each condition, as delta/delta percent, were averaged and expressed as mean ± SD. Statistical analysis was performed using a non-parametric test (Kruskal-Wallis) and each treatment condition was compared to the relative DMSO 0.1%. Differences were considered statistically significant when the p-value was smaller than 0.05.

[3] = tested on: caspases 3,7 in hiPSC-CMs; assay: ApoLive-Glo Multiplex Assay: apoptosis, caspases 3,7 activation; assay type: cell-based, human
Method: as §1, §2

[4] = tested on: Annexin V activation in hiPSC-CMs; assay type: cell-based
Method: The assays were performed according to manufacturer instructions.
as §2, with “Specifically, the Δ% values of all (pooled) DMSO wells (N = 81) were used to obtain the non-parametric 80%–95% (p = 0.80 & 1-α = 0.95) tolerance interval (TI).” left out

[5] = tested on: hiPSC-CMs (iCell-Cardiomyocytes^2); assay: RealTime-Glo Annexin V Apoptosis and Necrosis Assay: necrosis; assay type: cell-based, human
Method: as §1, §2

[6] = tested on: patients; design: method as in Wenningmann et al., 2019; conditions: doses above 700 mg/m^2; ref Wenningmann et al., 2019; cited from earlier work
[7] = tested on: human embryonic stem cell-derived cardiomyocytes; design: method as in Hihara et al., 2014; conditions: 10 µM; 24 h-treatment; 4% in vehicle-treated wells; ref Hihara et al., 2014; cited from earlier work

COc1nc(N)nc2c1ncn2[C@@H]1O[C@H](COP(=O)(N[C@@H](C)C(=O)OCC(C)(C)C)Oc2cccc3ccccc23)[C@@H](O)[C@@]1(C)O (some centres unmarked) [BMS-986094]
estimated dose that caused cardiotoxicity [1]: 3 µM

C[C@H](CS)C(=O)N1CCC[C@H]1C(=O)O [Captopril]
Live Cells (viability), Mean±SD ([2]; 10 µM, 24h): -8.4±17.4 Δ/Δ%
Live Cells (viability), Mean±SD ([2]; 10 µM, 48h): -9.1±9.5 Δ/Δ%
Live Cells (viability), Mean±SD ([2]; 10 µM, 72h): 2.4±8.5 Δ/Δ%
number of live cells ([2]; any of the time points (24, 48, 72 h)): did not show any significant change in live cell number
Caspases 3, 7 (apoptosis activation), Mean±SD ([3]; 10 µM, 24h): -6.9±11.1 Δ/Δ%
Caspases 3, 7 (apoptosis activation), Mean±SD ([3]; 10 µM, 48h): -3±10.7 Δ/Δ%
Caspases 3, 7 (apoptosis activation), Mean±SD ([3]; 10 µM, 72h): -3.6±5 Δ/Δ%
apoptosis activation ([4]; 24, 48, 72 h): did not display any significant changes in necrosis or apoptosis activation
Necrosis, Mean±SD ([5]; 10 µM, 24h): 21.5±33.7 Δ/Δ%
Necrosis, Mean±SD ([5]; 10 µM, 48h): -8.1±21.1 Δ/Δ%
Necrosis, Mean±SD ([5]; 10 µM, 72h): 13.9±44.2 Δ/Δ%
necrosis activation ([5]; 24, 48, 72 h): did not display any significant changes in necrosis or apoptosis activation

COc1cccc2c1C(=O)c1c(O)c3c(c(O)c1C2=O)C[C@@](O)(C(=O)CO)C[C@@H]3O[C@H]1C[C@H](N)[C@H](O)[C@H](C)O1 [Doxorubicin]
Live Cells (viability), Mean±SD ([2]; 0.3 µM, 24h): -7.1±16.9 Δ/Δ%
Live Cells (viability), Mean±SD ([2]; 0.3 µM, 48h): -9±11.9 Δ/Δ%
drop in live cells assay ([2]; 0.3 µM, 72h): ~40%
Live Cells (viability), Mean±SD ([2]; 1 µM, 24h): -10.5±16.2 Δ/Δ%
number of live cells ([2]; 10 µM, 24, 48, 72 h): strong impact on the number of live cells, further decreasing over time
congestive heart failure, share of patients [6]: up to 48%
Caspases 3, 7 (apoptosis activation), Mean±SD ([3]; 0.3 µM, 24h): 0.6±15.9 Δ/Δ%
Caspases 3, 7 (apoptosis activation), Mean±SD ([3]; 0.3 µM, 48h): 109.5±125.1 Δ/Δ%
Caspases 3, 7 (apoptosis activation), Mean±SD ([3]; 10 µM, 72h): 113±14.3 Δ/Δ%
activation of caspases 3,7 (apoptosis) ([3]; 24, 48, 72 h): induced the largest activation of caspases 3,7
Annexin V (apoptosis activation), Mean±SD ([4]; 0.3 µM, 24h): 24.6±24 Δ/Δ%
Annexin V (apoptosis activation), Mean±SD ([4]; 0.3 µM, 48h): 31.2±28.5 Δ/Δ%
activation of Annexin V (apoptosis) ([4]; 24, 48, 72 h): largest activation of caspases 3,7, and of Annexin V
Necrosis, Mean±SD ([5]; 0.3 µM, 24h): 9.8±45.2 Δ/Δ%
Necrosis, Mean±SD ([5]; 0.3 µM, 48h): 40.2±103.1 Δ/Δ%
Necrosis, Mean±SD ([5]; 1 µM, 24h): 9.8±27 Δ/Δ%
Necrosis, Mean±SD ([5]; 1 µM, 48h): 72.9±120.4 Δ/Δ%
activation of necrosis ([5]; over time, especially at 72 h): also showed the activation of necrosis

N=C(N)c1ccc(OCCCCCOc2ccc(C(=N)N)cc2)cc1 [Pentamidine]
FPDc prolongation [7]: 62%

CCN(CC)CCNC(=O)c1c(C)[nH]c(/C=C2\C(=O)Nc3ccc(F)cc32)c1C [Sunitinib]
Live Cells (viability), Mean±SD ([2]; 1 µM, 24h): -12.5±1.8 Δ/Δ%
Live Cells (viability), Mean±SD ([2]; 1 µM, 48h): -8.8±2.9 Δ/Δ%
Live Cells (viability), Mean±SD ([2]; 1 µM, 72h): 5.8±5.9 Δ/Δ%
number of live cells ([2]; 3 µM): did not cause a relevant change
Live Cells (viability), Mean±SD ([2]; 3 µM, 72h): -21.4±3.7 Δ/Δ%
Live Cells (viability), Mean±SD ([2]; 3 µM, 24h): -1.8±19.3 Δ/Δ%
Live Cells (viability), Mean±SD ([2]; 3 µM, 48h): -13.1±9.7 Δ/Δ%
number of live cells ([2]; 10 µM, 24, 48, 72 h): significant decrease in the number of live cells
concentration at which decrease in live-cell count occurred, times the median fCmax ([2]; 48 h time point): higher than 300
Caspases 3, 7 (apoptosis activation), Mean±SD ([3]; 1 µM, 24h): 11±8.3 Δ/Δ%
Caspases 3, 7 (apoptosis activation), Mean±SD ([3]; 1 µM, 72h): 70.2±31.9 Δ/Δ%
Caspases 3, 7 (apoptosis activation), Mean±SD ([3]; 10 µM, 48h): 42.9±61.5 Δ/Δ%
Caspases 3, 7 (apoptosis activation), Mean±SD ([3]; 10 µM, 72h): -45±134.8 Δ/Δ%
Annexin V (apoptosis activation), Mean±SD ([4]; 1 µM, 24h): -7.5±2.1 Δ/Δ%
Annexin V (apoptosis activation), Mean±SD ([4]; 1 µM, 48h): -11.9±4.5 Δ/Δ%
Annexin V (apoptosis activation), Mean±SD ([4]; 1 µM, 72h): -0.3±7 Δ/Δ%
Annexin V (apoptosis activation), Mean±SD ([4]; 3 µM, 24h): 7±8.3 Δ/Δ%
Annexin V (apoptosis activation), Mean±SD ([4]; 10 µM, 48h): 14.8±35.2 Δ/Δ%
Annexin V (apoptosis activation), Mean±SD ([4]; 10 µM, 72h): -32.7±15.7 Δ/Δ%
Necrosis, Mean±SD ([5]; 1 µM, 72h): 88.5±23.2 Δ/Δ%
necrosis-driven cell death ([5]; especially at 10 µM): predominant necrosis-driven cell death
